For data set [1] the following is noted: 298.15 K; 101.33 kPa; Liquid; Vibrating tube method.
Data set [2] can be described thus: refractive index (Na D-line) (dimensionless). Particulars: 298.15 K; 101.33 kPa; Liquid; Standard Abbe refractometry.

± gives the expanded uncertainty stated by the source.

`CCCCCCCCn1cc[n+](C)c1.O=S(=O)([N-]S(=O)(=O)C(F)(F)F)C(F)(F)F`: the mass density in data set [1] came to 1320.76 ± 12 kg/m3. The refractive index in data set [2] is reported as 1.43331 ± 0.0012.

For `CCCCCCC` [heptane], the mass density in data set [1] amounted to 679.466 ± 0.26 kg/m3. In addition, the refractive index in data set [2] is 1.38517 ± 0.00068.

For the compound `CCCCCCCCCCCCCCCC` [hexadecane], the mass density in data set [1] stood at 771.15 ± 0.3 kg/m3. Besides, the refractive index in data set [2] is 1.43232 ± 0.0007.

`CCCCCC` [hexane]: in data set [1], the mass density is 655.06 ± 0.31 kg/m3. The refractive index in data set [2] is recorded as 1.37287 ± 0.0007.

`c1ccsc1` [thiophene]: the mass density in data set [1] came to 1058.5 ± 0.23 kg/m3. Besides, the refractive index in data set [2] was found to be 1.52581 ± 0.00068.

A word on the mass density: it is the mass of a sample divided by its volume. The refractive index is a measure of how strongly the sample bends light.

Values taken from the NIST ThermoML archive (doi:10.1016/j.fluid.2007.10.010).
